Experiment: DPPH radical scavenging ability of nanoparticles by time
Type: biochemical
Procedure: DPPH radical scavenging ability was measured to confirm the effect of antioxidant physiological activity according to the sustained-release release of nanoparticles according to the coating layer structure and amount of hydrogel.
50 μL of 0.2 mM 1,1-diphenyl-2-picrylhydrazyl (DPPH) was added to 100 ul of each sample solution. Then, it was stirred and reacted at room temperature for 30 minutes, and then the ELISA reader (Powerwave XS2, Biotek, USA) was used to measure the absorbance at […]. The control groups were Butylated Hydroxynisole (BHA) and Catechin.
Next, using Equation 2 below, the DPPH radical scavenging ability of each nanoparticle was calculated. DPPH radical scavenging ability (%)=(1−absorbance of sample added group/absorbance of no added group)×100 [Equation 2]

Catechin
DPPH radical scavenging ability (18 hr): 93.4211%
DPPH radical scavenging ability (24 hr): 87.4680%
DPPH radical scavenging ability (48 hr): 70.5607%

COc1ccc(O)c(C(C)(C)C)c1 [BHA, Butylated Hydroxynisole]
DPPH radical scavenging ability (18 hr): 93.2084%
DPPH radical scavenging ability (24 hr): 82.3362%
DPPH radical scavenging ability (48 hr): 47.0031%
